Patent publication US11339171B2, “MDM2 inhibitors” (Gan & Lee Pharmaceuticals, priority 2017, dated 2022)
pIC50: −log10 of the molar value.

Experiments:
MDM2 = biological target: T1, MDM2 (Homo sapiens, UniProt Q00987); assay: Inhibition test of MDM2-P53 (GST-MDM2, Biotin-P53, Anti-GST-Tb, SA-XL665); assay type: binding
T1 construct: made in house
How it was run: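 HTRF-type assay using 4 nM GST-MDM2 (final), Biotin-P53, SA-XL665 and anti-GST-Tb in PBS with 0.1% BSA, 5 mM DTT and 1 mM AEBSF. Compounds in 5-fold serial dilutions over twelve points; incubation 90 min at 25° C with shaking before plate-reader read-out.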

[1] = system: human osteosarcoma cell line SJSA-1; assay: Inhibition of proliferation of human osteosarcoma cell line SJSA-1 (DAPI staining, In Cell Analyzer); conditions: Homo sapiens, SJSA-1, 72 h, read-out: IC50 (nM), inhibitory activity on proliferation of human osteosarcoma cell line SJSA-1, SJSA-1, incubated 72 h

T1 sequence (Q00987 whole entry): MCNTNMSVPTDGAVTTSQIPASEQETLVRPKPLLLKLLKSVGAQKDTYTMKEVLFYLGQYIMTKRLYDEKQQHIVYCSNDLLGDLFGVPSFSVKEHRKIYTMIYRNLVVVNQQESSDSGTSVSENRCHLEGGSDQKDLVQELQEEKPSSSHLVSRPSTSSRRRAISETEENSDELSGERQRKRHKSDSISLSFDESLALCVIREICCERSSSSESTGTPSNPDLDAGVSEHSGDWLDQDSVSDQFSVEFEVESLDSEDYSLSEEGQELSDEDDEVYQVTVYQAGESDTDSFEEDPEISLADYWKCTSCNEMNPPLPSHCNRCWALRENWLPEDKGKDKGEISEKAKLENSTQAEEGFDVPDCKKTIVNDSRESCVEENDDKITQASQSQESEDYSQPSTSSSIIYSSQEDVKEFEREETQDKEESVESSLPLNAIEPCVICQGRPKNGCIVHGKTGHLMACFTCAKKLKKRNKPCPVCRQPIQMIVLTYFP

Row | Structure (SMILES) | pIC50 (MDM2) | IC50 [1]
1 | Cc1ccc(Cl)cc1N1C(=O)c2nc(-c3ccccc3OC(F)F)n(C(C)C)c2[C@@]12C(=O)Nc1cc(Cl)ccc12 [Example S-30, (S)-6-chloro-5′-(5-chloro-2-methylphenyl)-2′-(2-(difluoromethoxy)phenyl)-3′-isopropyl-3′H-spiro[dihydroindole-3,4′-pyrrolo[3,4-d]imidazole]-2,6′(5′H)-dione] | 8.48 | 58.1 nM
2 | Cc1ccc(Cl)cc1N1C(=O)c2nc(-c3ccccc3OC(F)(F)F)n(C(C)C)c2[C@@]12C(=O)Nc1cc(Cl)ccc12 [Example S-31, (S)-6-chloro-5′-(5-chloro-2-methylphenyl)-3′-isopropyl-2′-(2-(trifluoromethoxy)phenyl)-3′H-spiro[dihydroindole-3,4′-pyrrolo[3,4-d]imidazole]-2,6′(5′H)-dione] | 7.22 | 1580 nM
3 | CCc1ccc(-c2nc3c(n2C(C)C)[C@@]2(C(=O)Nc4cc(Cl)ccc42)N(c2cc(Cl)ccc2C)C3=O)c(OC)c1 [Example S-33, (S)-6-chloro-5′-(5-chloro-2-methylphenyl)-2′-(4-ethyl-2-methoxyphenyl)-3′-isopropyl-3′H-spiro[dihydroindole-3,4′-pyrrolo[3,4-d]imidazole]-2,6′(5′H)-dione] | 8.61 | 9.7 nM
4 | Cc1ccc(Cl)cc1N1C(=O)c2nc(-c3ccccc3OC(C)C)n(C(C)C)c2[C@@]12C(=O)Nc1cc(Cl)ccc12 [Example S-34, (S)-6-chloro-5′-(5-chloro-2-methylphenyl)-2′-(2-isopropoxyphenyl)-3′-isopropyl-3′H-spiro[dihydroindole-3,4′-pyrrolo[3,4-d]imidazole]-2,6′(5′H)-dione] | 6.86 | 619 nM
5 | CCOc1ccccc1-c1nc2c(n1C(C)C)[C@@]1(C(=O)Nc3cc(Cl)ccc31)N(c1cc(Cl)ccc1C)C2=O [Example S-35, (S)-6-chloro-5′-(5-chloro-2-methylphenyl)-2′-(2-ethoxyphenyl)-3′-isopropyl-3′H-spiro[dihydroindole-3,4′-pyrrolo[3,4-d]imidazole]-2,6′(5′H)-dione] | 7.63 | 258 nM
6 | CCc1ccc(OC)c(-c2nc3c(n2C(C)C)[C@@]2(C(=O)Nc4cc(Cl)ccc42)N(c2cc(Cl)ccc2C)C3=O)c1 [Example S-37, (S)-6-chloro-5′-(5-chloro-2-methylphenyl)-2′-(5-ethyl-2-methoxyphenyl)-3′-isopropyl-3′H-spiro[dihydroindole-3,4′-pyrrolo[3,4-d]imidazole]-2,6′(5′H)-dione] | 7.66 | 14.2 nM
7 | CCc1ccc(OC)c(-c2nc3c(n2C(C)C)[C@@]2(C(=O)Nc4cc(Cl)ccc42)N(c2cccc(Cl)c2)C3=O)c1 [Example S-38, (S)-6-chloro-5′-(3-chlorophenyl)-2′-(5-ethyl-2-methoxyphenyl)-3′-isopropyl-3′H-spiro[dihydroindole-3,4′-pyrrolo[3,4-d]imidazole]-2,6′(5′H)-dione] | 7.92 | 14.7 nM
8 | COc1ccc(-c2nc3c(n2C(C)C)[C@@]2(C(=O)Nc4cc(Cl)ccc42)N(c2cc(Cl)cn(C)c2=O)C3=O)c(OC)c1 [Example S-39, (S)-6-chloro-5′-(5-chloro-1-methyl-2-oxo-1,2-dihydropyridin-3-yl)-2′-(2,4-dimethoxyphenyl)-3′-isopropyl-3′H-spiro[dihydroindole-3,4′-pyrrolo[3,4-d]imidazole]-2,6′(5′H)-dione] | 8.41 | 1180 nM
9 | COc1cc(-c2nc3c(n2C(C)C)[C@@]2(C(=O)Nc4cc(Cl)ccc42)N(c2cc(Cl)ccc2C)C3=O)c(OC)cn1 [Example S-40, (S)-6-chloro-5′-(5-chloro-2-methylphenyl)-2′-(2,5-dimethoxypyridin-4-yl)-3′-isopropyl-3′H-spiro[dihydroindole-3,4′-pyrrolo[3,4-d]imidazole]-2,6′(5′H)-dione] | 8.41 | 14.1 nM
10 | COc1ncc(-c2nc3c(n2C2CCC2)[C@@]2(C(=O)Nc4cc(Cl)ccc42)N(c2cc(Cl)ccc2C)C3=O)c(OC)n1 [Example S-41, (S)-6-chloro-5′-(5-chloro-2-methylphenyl)-3′-cyclobutyl-2′-(2,4-dimethoxypyrimidin-5-yl)-3′H-spiro[dihydroindole-3,4′-pyrrolo[3,4-d]imidazole]-2,6′(5′H)-dione] | 6.83 | 1210 nM
11 | COc1ncc(-c2nc3c(n2C(C)C)[C@@]2(C(=O)Nc4cc(Cl)ccc42)N(c2cc(Cl)cnc2C)C3=O)c(OC)n1 [Example S-42, (S)-6-chloro-5′-(5-chloro-2-methylpyridin-3-yl)-2′-(2,4-dimethoxypyrimidin-5-yl)-3′-isopropyl-3′H-spiro[dihydroindole-3,4′-pyrrolo[3,4-d]imidazole]-2,6′(5′H)-dione] | 8.82 | 5.6 nM
12 | COc1ccccc1-c1nc2c(n1C(C)C)[C@@]1(C(=O)Nc3cc(Cl)ccc31)N(c1cc(Cl)cn(C)c1=O)C2=O [Example S-43, (S)-6-chloro-5′-(5-chloro-1-methyl-2-oxo-1,2-dihydropyridin-3-yl)-3′-isopropyl-2′-(2-methoxyphenyl)-3′H-spiro[dihydroindole-3,4′-pyrrolo[3,4-d]imidazole]-2,6′(5′H)-dione] | 8.48 | 564 nM
13 | COc1cc(CN(C)C)ccc1-c1nc2c(n1C(C)C)[C@@]1(C(=O)Nc3cc(Cl)ccc31)N(c1cc(Cl)ccc1C)C2=O [Example S-47, (S)-6-chloro-5′-(5-chloro-2-methylphenyl)-2′-(4-((dimethylamino)methyl)-2-methoxyphenyl)-3′-isopropyl-3′H-spiro[dihydroindole-3,4′-pyrrolo[3,4-d]imidazole]-2,6′(5′H)-dione] | 8.38 | 14 nM
14 | COc1cc(N)ccc1-c1nc2c(n1C(C)C)[C@@]1(C(=O)Nc3cc(Cl)ccc31)N(c1cc(Cl)ccc1C)C2=O [Example S-49, (S)-2′-(4-amino-2-methoxyphenyl)-6-chloro-5′-(5-chloro-2-methylphenyl)-3′-isopropyl-3′H-spiro[dihydroindole-3,4′-pyrrolo[3,4-d]imidazole]-2,6′(5′H)-dione] | 8.76 | 5.92 nM
15 | COc1ncc(-c2cc3c(n2C(C)C)[C@@]2(C(=O)Nc4cc(Cl)ccc42)N(c2cc(Cl)ccc2C)C3=O)c(OC)n1 [Example S-50, (S)-6-chloro-5′-(5-chloro-2-methylphenyl)-2′-(2,4-dimethoxypyrimidin-5-yl)-1′-isopropyl-1′H-spiro[dihydroindole-3,6′-pyrrolo[3,4-b]pyrrole]-2,4′(5′H)-dione] | 7.07 | 1320 nM
16 | COc1ncc(-c2nc3c(n2C(C)C)[C@@]2(C(=O)Nc4cc(Cl)ccc42)N(c2cc(C)cc(Cl)c2)C3=O)c(OC)n1 [Example S-51, (S)-6-chloro-5′-(3-chloro-5-methylphenyl)-2′-(2,4-dimethoxypyrimidin-5-yl)-3′-isopropyl-3′H-spiro[dihydroindole-3,4′-pyrrolo[3,4-d]imidazole]-2,6′(5′H)-dione] | 8.36 | 62.6 nM
17 | COc1ccc(-c2nc3c(n2C(C)C)[C@@]2(C(=O)Nc4cc(Cl)ccc42)N(c2cc(Cl)c(=O)n(C)c2)C3=O)c(OC)c1 [Example S-52, (S)-6-chloro-5′-(5-chloro-1-methyl-6-oxo-1,6-dihydropyridin-3-yl)-2′-(2,4-dimethoxyphenyl)-3′-isopropyl-3′H-spiro[dihydroindole-3,4′-pyrrolo[3,4-d]imidazole]-2,6′(5′H)-dione] | 9.06 | 467 nM
18 | COc1ccccc1-c1nc2c(n1C(C)C)[C@@]1(C(=O)Nc3cc(Cl)ccc31)N(c1cc(Cl)c(=O)n(C)c1)C2=O [Example S-53, (S)-6-chloro-5′-(5-chloro-1-methyl-6-oxo-1,6-dihydropyridin-3-yl)-3′-isopropyl-2′-(2-methoxyphenyl)-3′H-spiro[dihydroindole-3,4′-pyrrolo[3,4-d]imidazole]-2,6′(5′H)-dione] | 9.08 | 213 nM
19 | CNC(=O)c1ccc(-c2nc3c(n2C(C)C)[C@@]2(C(=O)Nc4cc(Cl)ccc42)N(c2cc(Cl)ccc2C)C3=O)c(OC)c1 [Example S-54, (S)-4-(6-chloro-5′-(5-chloro-2-methylphenyl)-3′-isopropyl-2,6′-dioxo-5′,6′-dihydro-3′H-spiro[dihydroindole-3,4′-pyrrolo[3,4-d]imidazole]-2′-yl)-3-methoxy-N-methylbenzamide] | 8.65 | 468 nM
20 | COc1ncc(-c2nc3c(n2C(C)C)[C@@]2(C(=O)Nc4cc(Cl)ccc42)N(c2cccc(C)c2)C3=O)c(OC)n1 [Example S-55, (S)-6-chloro-2′-(2,4-dimethoxypyrimidin-5-yl)-3′-isopropyl-5′-(m-tolyl)-3′H-spiro[dihydroindole-3,4′-pyrrolo[3,4-d]imidazole]-2,6′(5′H)-dione] | 8.37 | 117 nM
21 | COc1cccc(F)c1-c1nc2c(n1C(C)C)[C@@]1(C(=O)Nc3cc(Cl)ccc31)N(c1cc(Cl)ccc1C)C2=O [Example S-57, (S)-6-chloro-5′-(5-chloro-2-methylphenyl)-2′-(2-fluoro-6-methoxyphenyl)-3′-isopropyl-3′H-spiro[dihydroindole-3,4′-pyrrolo[3,4-d]imidazole]-2,6′(5′H)-dione] | 8.52 | 11.8 nM
22 | COc1cc(Cl)cc(N2C(=O)c3nc(-c4cnc(OC)nc4OC)n(C(C)C)c3[C@@]23C(=O)Nc2cc(Cl)ccc23)c1 [Example S-58, (S)-6-chloro-5′-(3-chloro-5-methoxyphenyl)-2′-(2,4-dimethoxypyrimidin-5-yl)-3′-isopropyl-3′H-spiro[dihydroindole-3,4′-pyrrolo[3,4-d]imidazole]-2,6′(5′H)-dione] | 7.94 | 50.8 nM
